Laboratory results published in the Deep4Chem optical property database.
Where “and” joins values, the source holds several entries; their conditions need not be identical. Equal entries are not always repeated. Each block holds one compound with its values, some of them ahead of it.

Test: solvent given as SMILES

Structure (SMILES): COc1cc(OC)cc(C(=O)OCc2c(C)c(=O)n3c(=O)c(C)c(C)n23)c1
absorption maximum (in CCO): 378 nm

Structure (SMILES): COC(=O)C(NC(=O)OC(C)(C)C)c1ccc2oc(-c3ccc(O)cc3O)nc2c1 (centres undefined)
absorption maximum (in CC1CCCCC1): 336 nm | absorption maximum (in CC#N): 320 nm | absorption maximum (in CO): 321 nm

Structure (SMILES): COc1cc2c3c4c(c5ccc(C(C)(C)C)cc5c5c(OC)cc(OC)c(c2c(OC)c1OC)c45)=[N+]1C3=Nc2c3c4cc(OC)c(OC)c(OC)c4c4c(OC)cc(OC)c5c6cc(C(C)(C)C)ccc6c(c3c54)n2[B-]1(F)F
absorption maximum (in Cc1ccccc1): 878 nm

Structure (SMILES): CN(C)c1ccc(C(=O)Nc2ccc(F)cc2)cc1
absorption maximum (in C1CCCCC1): 307 nm | absorption maximum (in C1CCOC1): 311 nm | absorption maximum (in CC#N): 314 nm | absorption maximum (in CCOCC): 307 nm

Structure (SMILES): CCCCCc1ccc(C#Cc2cc(C#Cc3ccc(CCCCC)cc3)c3ccc4c(C(=O)c5ccccc5)cc(C#Cc5ccc(CCCCC)cc5)c5ccc2c3c54)cc1
absorption maximum (in ClCCl): 457 nm

Structure (SMILES): CCN(CC)c1ccc(-c2nc(Oc3ccc(-c4nc5ccc(Cl)cc5o4)cc3)nc(Oc3ccc(-c4nc5ccc(Cl)cc5o4)cc3)n2)cc1
absorption maximum (in CN(C)C=O): 393 nm

Structure (SMILES): COC(=O)CN1C(=O)c2cc3ccc(N(C)C)cc3cc2C1=O
absorption maximum (in C1CCOC1): 373 nm | absorption maximum (in CC#N): 380 nm | absorption maximum (in CC(C)=O): 375 nm | absorption maximum (in CCO): 379 nm | absorption maximum (in Cc1ccccc1): 373 nm | absorption maximum (in ClC(Cl)Cl): 380 nm

Structure (SMILES): CCCCn1c(-c2ccc(-c3nnc(-c4ccc(-c5nc(-c6ccccc6)c(-c6ccccc6)n5CCCC)cc4)o3)cc2)nc(-c2ccccc2)c1-c1ccccc1
absorption maximum (in ClCCl): 352 nm

Structure (SMILES): COCCOc1ccc(OCCOC)c(C=O)c1
absorption maximum (in CC(C)(C)O): 350 nm | absorption maximum (in CC(C)CO): 350 nm | absorption maximum (in CC(C)O): 349 nm | absorption maximum (in CCCCO): 349 nm | absorption maximum (in CCCO): 349 nm | absorption maximum (in CCO): 349 nm | absorption maximum (in CN(C)C=O): 350 nm | absorption maximum (in CNC=O): 350 nm | absorption maximum (in CO): 348 nm | absorption maximum (in NC=O): 353 nm | absorption maximum (in O): 349 nm

Structure (SMILES): Cc1ccc(N(c2ccc(C)cc2)c2ccc(-c3ccc4c(c3)C(=O)c3ccccc3C4=O)cc2)cc1
absorption maximum (in C1CCOC1): 463 nm | absorption maximum (in CCCCCC): 457 nm | absorption maximum (in CCOC(C)=O): 461 nm | absorption maximum (in CCOCC): 459 nm | absorption maximum (in Cc1ccccc1): 470 nm | absorption maximum (in ClC(Cl)(Cl)Cl): 474 nm | absorption maximum (in ClCCl): 476 nm

Structure (SMILES): CC1=CC(C)=[N+]2C1=C(c1ccc(N3CCCCC3)cc1)c1c(C)cc(C)n1[B-]2(F)F
absorption maximum (in C1CCOC1): 499 nm | absorption maximum (in CC#N): 496 nm | absorption maximum (in CC(=O)C(C)(C)C): 496 nm | absorption maximum (in CC(C)=O): 495 nm | absorption maximum (in CCCCCC): 500 nm | absorption maximum (in CCOC(C)=O): 498 nm | absorption maximum (in CO): 500 nm and 497 nm

Structure (SMILES): CC(C)(C)NC(=O)c1cc2ccc3cccc4ccc(c1C(=O)NC(C)(C)C)c2c34
absorption maximum (in ClC(Cl)Cl): 385 nm

Second part, the compound after the results:

absorption maximum (in C1COCCO1): 440 nm
Structure (SMILES): CC(C)CN1C(=O)/C(=C/c2ccc(C#N)cc2)C=C1c1ccccc1

absorption maximum (in ClC(Cl)Cl): 349 nm
Structure (SMILES): O=c1oc2ccccc2cc1-c1cn2ccccc2n1

absorption maximum (in C1CCCCC1): 302 nm | absorption maximum (in CC#N): 305 nm | absorption maximum (in CO): 301 nm | absorption maximum (in ClC(Cl)Cl): 308 nm | absorption maximum (in ClCCl): 385 nm | absorption maximum (in O): 305 nm
Structure (SMILES): c1ccc(-c2nc(-c3ccccc3)n3ccccc23)cc1

absorption maximum (in CC#N): 372 nm
Structure (SMILES): O=C(O)c1ccc(-c2nc(-c3ccccc3)c3ccccn23)cc1

absorption maximum (in ClC(Cl)Cl): 394 nm
Structure (SMILES): c1ccc(-c2ccc(-c3nc(-c4ccccc4)c(N(c4ccccc4)c4ccccc4)[se]3)cc2)cc1

absorption maximum (in CC#N): 671 nm
Structure (SMILES): CN1/C(=C\C=C\C2=C3C=CC(c4ccccc4)=[N+]3[B-](F)(F)n3c2ccc3-c2ccccc2)C(C)(C)c2ccccc21

absorption maximum (in ClCCl): 341 nm
Structure (SMILES): Cc1ccc(-c2cccc3ncc(-c4ccccc4)n23)cc1

absorption maximum (in CCO): 391 nm | absorption maximum (in ClCCl): 394 nm
Structure (SMILES): c1cnc(-c2c3ccccc3c(-c3cncnc3)c3ccccc23)nc1

absorption maximum (in CO): 437 nm
Structure (SMILES): O=C1C=C(Nc2ccc([N+](=O)[O-])cc2[N+](=O)[O-])C(=O)c2ccccc21
